Experimental data: the kinase profiling compilation of Christmann-Franck et al. (2016)

Experiments:
Assay in all cases: KINOMEscan competition binding
Conditions in all cases: compound 10.0 µM
ABL1 (human) = ABL1 (human) (UniProt P00519)
[1] = tested on: ABL1 (human), P00519 [H396P]
BUB1 (human) = BUB1 (human) (UniProt O43683)
CSNK1A1L (human) = CSNK1A1L (human) (UniProt Q8N752)
CSNK1G3 (human) = CSNK1G3 (human) (UniProt Q9Y6M4)
CSNK2A1 (human) = CSNK2A1 (human) (UniProt P68400)
EIF2AK2 (human) = EIF2AK2 (human) (UniProt P19525)
ERBB3 (human) = ERBB3 (human) (UniProt P21860)
FGFR3 (human) = FGFR3 (human) (UniProt P22607)
Sequence of FGFR3 (human) (P22607 whole entry, looked up): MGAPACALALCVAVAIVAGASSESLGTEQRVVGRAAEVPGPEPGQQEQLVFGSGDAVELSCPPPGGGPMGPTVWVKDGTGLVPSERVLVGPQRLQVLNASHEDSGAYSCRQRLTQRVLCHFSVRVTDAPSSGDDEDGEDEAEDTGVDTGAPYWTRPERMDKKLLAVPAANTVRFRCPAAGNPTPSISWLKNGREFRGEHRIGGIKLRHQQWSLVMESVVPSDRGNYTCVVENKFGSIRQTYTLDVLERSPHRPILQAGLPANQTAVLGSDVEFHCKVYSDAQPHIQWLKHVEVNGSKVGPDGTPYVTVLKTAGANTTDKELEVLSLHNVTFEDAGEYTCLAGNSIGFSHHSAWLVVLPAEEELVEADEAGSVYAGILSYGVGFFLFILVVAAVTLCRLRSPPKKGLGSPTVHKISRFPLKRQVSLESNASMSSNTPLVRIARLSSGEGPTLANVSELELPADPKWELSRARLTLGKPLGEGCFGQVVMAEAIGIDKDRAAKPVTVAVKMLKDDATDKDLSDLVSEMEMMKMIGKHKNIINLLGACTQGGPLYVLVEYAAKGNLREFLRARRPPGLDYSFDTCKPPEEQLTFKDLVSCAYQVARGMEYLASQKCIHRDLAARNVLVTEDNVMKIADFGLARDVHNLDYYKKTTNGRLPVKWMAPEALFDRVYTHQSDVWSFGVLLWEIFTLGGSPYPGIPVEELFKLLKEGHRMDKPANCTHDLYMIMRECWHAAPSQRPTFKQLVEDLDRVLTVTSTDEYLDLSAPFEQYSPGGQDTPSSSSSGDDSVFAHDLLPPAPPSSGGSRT

GSG2 (human) = GSG2 (human) (UniProt Q8TF76)
INSR (human) = INSR (human) (UniProt P06213)
KIT (human) = KIT (human) (UniProt P10721)
LIMK1 (human) = LIMK1 (human) (UniProt P53667)
MAP3K12 (human) = MAP3K12 (human) (UniProt Q12852)
MAP3K13 (human) = MAP3K13 (human) (UniProt O43283)
MAP3K2 (human) = MAP3K2 (human) (UniProt Q9Y2U5)
MAP3K5 (human) = MAP3K5 (human) (UniProt Q99683)
Sequence of MAP3K5 (human) (Q99683 whole entry, looked up): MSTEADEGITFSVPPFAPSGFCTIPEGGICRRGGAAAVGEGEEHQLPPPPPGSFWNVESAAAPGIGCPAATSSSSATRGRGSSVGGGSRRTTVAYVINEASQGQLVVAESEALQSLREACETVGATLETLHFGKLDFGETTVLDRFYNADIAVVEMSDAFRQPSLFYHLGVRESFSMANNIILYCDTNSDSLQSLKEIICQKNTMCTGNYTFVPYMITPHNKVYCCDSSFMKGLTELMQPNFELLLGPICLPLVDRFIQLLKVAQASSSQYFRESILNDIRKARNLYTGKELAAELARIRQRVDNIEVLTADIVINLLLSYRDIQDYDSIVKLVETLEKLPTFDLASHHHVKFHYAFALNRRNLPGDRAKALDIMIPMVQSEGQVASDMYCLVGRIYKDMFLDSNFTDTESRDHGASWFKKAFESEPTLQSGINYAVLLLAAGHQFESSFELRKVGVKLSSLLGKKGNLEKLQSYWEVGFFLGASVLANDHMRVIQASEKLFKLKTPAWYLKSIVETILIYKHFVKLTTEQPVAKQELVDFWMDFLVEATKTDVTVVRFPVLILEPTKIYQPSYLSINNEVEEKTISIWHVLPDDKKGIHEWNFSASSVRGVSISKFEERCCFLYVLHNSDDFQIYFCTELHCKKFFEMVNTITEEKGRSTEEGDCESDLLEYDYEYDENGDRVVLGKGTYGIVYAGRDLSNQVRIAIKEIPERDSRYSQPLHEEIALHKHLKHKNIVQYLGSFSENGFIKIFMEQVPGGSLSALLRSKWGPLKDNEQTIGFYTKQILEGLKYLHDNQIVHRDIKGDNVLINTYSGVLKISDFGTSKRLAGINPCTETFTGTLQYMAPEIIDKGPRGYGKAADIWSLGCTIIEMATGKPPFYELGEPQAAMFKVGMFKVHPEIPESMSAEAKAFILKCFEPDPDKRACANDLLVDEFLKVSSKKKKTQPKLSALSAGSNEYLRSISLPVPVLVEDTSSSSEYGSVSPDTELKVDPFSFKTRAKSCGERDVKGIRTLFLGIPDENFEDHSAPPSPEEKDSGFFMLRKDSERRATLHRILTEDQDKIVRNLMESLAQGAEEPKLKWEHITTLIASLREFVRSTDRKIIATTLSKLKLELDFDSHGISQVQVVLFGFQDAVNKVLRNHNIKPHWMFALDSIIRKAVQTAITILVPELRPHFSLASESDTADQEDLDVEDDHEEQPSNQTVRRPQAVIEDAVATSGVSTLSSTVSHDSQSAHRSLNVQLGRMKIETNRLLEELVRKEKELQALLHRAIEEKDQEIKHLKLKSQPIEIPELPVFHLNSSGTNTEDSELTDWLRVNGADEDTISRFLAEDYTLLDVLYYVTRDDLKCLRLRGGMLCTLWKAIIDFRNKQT

MAP3K9 (human) = MAP3K9 (human) (UniProt P80192)
Sequence of MAP3K9 (human) (P80192 whole entry, looked up): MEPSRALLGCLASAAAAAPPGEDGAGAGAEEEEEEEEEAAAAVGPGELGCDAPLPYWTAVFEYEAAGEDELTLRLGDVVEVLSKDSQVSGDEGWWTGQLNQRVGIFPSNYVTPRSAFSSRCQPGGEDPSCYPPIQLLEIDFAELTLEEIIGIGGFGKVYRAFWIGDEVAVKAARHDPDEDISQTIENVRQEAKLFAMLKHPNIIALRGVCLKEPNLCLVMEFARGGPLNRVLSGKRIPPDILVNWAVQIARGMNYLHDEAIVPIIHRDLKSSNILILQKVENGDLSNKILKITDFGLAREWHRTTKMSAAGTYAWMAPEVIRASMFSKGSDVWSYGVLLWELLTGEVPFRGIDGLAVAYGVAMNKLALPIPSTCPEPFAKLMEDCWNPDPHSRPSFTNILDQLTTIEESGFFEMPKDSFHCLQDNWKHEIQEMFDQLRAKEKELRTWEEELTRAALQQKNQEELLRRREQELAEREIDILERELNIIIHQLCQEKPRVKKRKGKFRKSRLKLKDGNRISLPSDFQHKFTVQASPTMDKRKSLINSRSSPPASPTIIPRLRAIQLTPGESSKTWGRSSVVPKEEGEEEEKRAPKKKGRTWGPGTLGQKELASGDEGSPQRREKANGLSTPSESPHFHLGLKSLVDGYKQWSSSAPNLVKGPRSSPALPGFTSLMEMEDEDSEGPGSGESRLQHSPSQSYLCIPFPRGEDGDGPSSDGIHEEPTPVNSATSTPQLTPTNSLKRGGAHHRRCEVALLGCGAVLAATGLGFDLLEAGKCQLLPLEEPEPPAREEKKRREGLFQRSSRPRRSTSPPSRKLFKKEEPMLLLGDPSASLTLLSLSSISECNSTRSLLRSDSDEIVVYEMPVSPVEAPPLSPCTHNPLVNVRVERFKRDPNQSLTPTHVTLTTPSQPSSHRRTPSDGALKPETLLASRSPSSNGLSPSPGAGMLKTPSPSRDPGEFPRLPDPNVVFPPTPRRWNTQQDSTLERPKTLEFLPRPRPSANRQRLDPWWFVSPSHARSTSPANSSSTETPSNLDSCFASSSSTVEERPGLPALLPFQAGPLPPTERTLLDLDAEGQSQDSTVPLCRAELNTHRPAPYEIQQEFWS

MAPK13 (human) = MAPK13 (human) (UniProt O15264)
MAPK14 (human) = MAPK14 (human) (UniProt Q16539)
MAPK9 (human) = MAPK9 (human) (UniProt P45984)
MARK3 (human) = MARK3 (human) (UniProt P27448)
[2] = tested on: MET (human), P08581 [Y1235D]
MST1R (human) = MST1R (human) (UniProt Q04912)
NEK4 (human) = NEK4 (human) (UniProt P51957)
PIK3C2B (human) = PIK3C2B (human) (UniProt O00750)
PIK3C2G (human) = PIK3C2G (human) (UniProt O75747)
Sequence of PIK3C2G (human) (O75747 whole entry, looked up): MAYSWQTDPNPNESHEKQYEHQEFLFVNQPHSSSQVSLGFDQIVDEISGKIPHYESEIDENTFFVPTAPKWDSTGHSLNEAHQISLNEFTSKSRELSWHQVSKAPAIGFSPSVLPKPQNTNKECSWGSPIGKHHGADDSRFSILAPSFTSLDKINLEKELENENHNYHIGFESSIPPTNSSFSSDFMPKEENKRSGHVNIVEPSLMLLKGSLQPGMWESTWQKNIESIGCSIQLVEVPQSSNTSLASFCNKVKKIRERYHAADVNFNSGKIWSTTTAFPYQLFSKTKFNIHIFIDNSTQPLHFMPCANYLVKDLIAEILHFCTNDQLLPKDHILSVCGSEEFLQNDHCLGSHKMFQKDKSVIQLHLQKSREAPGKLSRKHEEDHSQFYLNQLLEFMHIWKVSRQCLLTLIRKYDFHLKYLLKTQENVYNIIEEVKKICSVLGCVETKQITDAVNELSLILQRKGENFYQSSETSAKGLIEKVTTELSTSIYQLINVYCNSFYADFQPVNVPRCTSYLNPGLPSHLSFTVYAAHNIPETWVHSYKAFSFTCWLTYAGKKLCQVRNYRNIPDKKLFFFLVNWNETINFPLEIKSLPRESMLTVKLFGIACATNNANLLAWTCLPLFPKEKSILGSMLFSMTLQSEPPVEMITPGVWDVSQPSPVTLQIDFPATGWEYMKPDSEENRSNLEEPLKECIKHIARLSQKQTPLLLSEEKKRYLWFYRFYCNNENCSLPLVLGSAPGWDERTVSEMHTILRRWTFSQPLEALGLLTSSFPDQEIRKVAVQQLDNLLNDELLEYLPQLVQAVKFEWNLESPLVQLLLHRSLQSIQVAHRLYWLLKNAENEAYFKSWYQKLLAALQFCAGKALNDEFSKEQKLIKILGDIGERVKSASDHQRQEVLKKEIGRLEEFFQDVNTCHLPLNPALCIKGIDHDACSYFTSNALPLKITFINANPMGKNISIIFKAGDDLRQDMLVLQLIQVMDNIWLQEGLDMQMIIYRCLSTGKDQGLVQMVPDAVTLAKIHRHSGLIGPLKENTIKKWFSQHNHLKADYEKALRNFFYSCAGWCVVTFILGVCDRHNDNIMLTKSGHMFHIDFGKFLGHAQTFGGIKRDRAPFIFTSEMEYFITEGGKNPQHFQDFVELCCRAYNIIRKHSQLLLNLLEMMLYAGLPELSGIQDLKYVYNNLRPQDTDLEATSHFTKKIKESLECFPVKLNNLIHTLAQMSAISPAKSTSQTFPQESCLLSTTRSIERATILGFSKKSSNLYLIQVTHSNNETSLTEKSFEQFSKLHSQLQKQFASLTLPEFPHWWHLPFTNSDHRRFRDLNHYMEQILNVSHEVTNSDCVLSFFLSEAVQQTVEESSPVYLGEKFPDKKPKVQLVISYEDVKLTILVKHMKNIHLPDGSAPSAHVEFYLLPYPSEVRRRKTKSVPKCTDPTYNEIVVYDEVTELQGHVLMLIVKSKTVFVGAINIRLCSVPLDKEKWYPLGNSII

PIM2 (human) = PIM2 (human) (UniProt Q9P1W9)
PIP5K1A (human) = PIP5K1A (human) (UniProt Q99755)
RET (human) = RET (human) (UniProt P07949)
RPS6KA1 KD2 (human) = RPS6KA1 KD2 (human) (UniProt Q15418)
SGK1 (human) = SGK1 (human) (UniProt O00141)
SRC (human) = SRC (human) (UniProt P12931)
TBK1 (human) = TBK1 (human) (UniProt Q9UHD2)
TNK2 (human) = TNK2 (human) (UniProt Q07912)
TRPM6 (human) = TRPM6 (human) (UniProt Q9BX84)
WNK1 (human) = WNK1 (human) (UniProt Q9H4A3)
WNK3 (human) = WNK3 (human) (UniProt Q9BYP7)
[3] = tested on: EGFR (human), P00533 [T790M]
PRKCH (human) = PRKCH (human) (UniProt P24723)

Sequence of CSNK1A1L (human) (Q8N752 whole entry, looked up): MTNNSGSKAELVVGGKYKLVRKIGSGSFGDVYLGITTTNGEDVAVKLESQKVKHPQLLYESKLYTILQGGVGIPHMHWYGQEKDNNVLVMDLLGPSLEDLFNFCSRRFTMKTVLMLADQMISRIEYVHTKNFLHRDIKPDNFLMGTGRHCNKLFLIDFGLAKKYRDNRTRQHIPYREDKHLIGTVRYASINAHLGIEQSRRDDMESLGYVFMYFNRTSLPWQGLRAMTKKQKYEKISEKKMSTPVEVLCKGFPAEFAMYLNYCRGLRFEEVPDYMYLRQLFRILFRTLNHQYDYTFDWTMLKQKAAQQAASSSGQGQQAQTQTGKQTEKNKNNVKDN

| Compound | kinase still bound, per cent of control (BUB1 (human)) | kinase still bound, per cent of control (CSNK1A1L (human)) | kinase still bound, per cent of control (CSNK1G3 (human)) | kinase still bound, per cent of control (CSNK2A1 (human)) | kinase still bound, per cent of control (EIF2AK2 (human)) | kinase still bound, per cent of control (ERBB3 (human)) | kinase still bound, per cent of control (FGFR3 (human)) | kinase still bound, per cent of control (GSG2 (human)) | kinase still bound, per cent of control (INSR (human)) | kinase still bound, per cent of control (LIMK1 (human)) | kinase still bound, per cent of control (MAP3K12 (human)) | kinase still bound, per cent of control (MAP3K13 (human)) | kinase still bound, per cent of control (MAP3K2 (human)) | kinase still bound, per cent of control (MAP3K5 (human)) | kinase still bound, per cent of control (MAP3K9 (human)) | kinase still bound, per cent of control (MAPK13 (human)) | kinase still bound, per cent of control (MAPK14 (human)) | kinase still bound, per cent of control (MAPK9 (human)) | kinase still bound, per cent of control (MARK3 (human)) | kinase still bound, per cent of control [2] | further results |
| --- | --- | --- | --- | --- | --- | --- | --- | --- | --- | --- | --- | --- | --- | --- | --- | --- | --- | --- | --- | --- | --- |
| N#CCNC(=O)c1ccc(-c2ccnc(Nc3ccc(N4CCOCC4)cc3)n2)cc1 | 3.5% | 100% | 100% | 52% | 47% | 100% | 86% | 67% | 57% | 100% | 100% | 77% | 100% | 100% | 45% | 100% | 100% | 26% | 16% | 100% | kinase still bound, per cent of control (ABL1 (human)): 54%; kinase still bound, per cent of control [1]: 65%; kinase still bound, per cent of control (KIT (human)): 100%; kinase still bound, per cent of control (MST1R (human)): 100%; kinase still bound, per cent of control (NEK4 (human)): 100%; kinase still bound, per cent of control (PIK3C2B (human)): 56%; kinase still bound, per cent of control (PIK3C2G (human)): 100%; kinase still bound, per cent of control (PIM2 (human)): 100%; kinase still bound, per cent of control (PIP5K1A (human)): 39%; kinase still bound, per cent of control (RET (human)): 50%; kinase still bound, per cent of control (RPS6KA1 KD2 (human)): 80%; kinase still bound, per cent of control (SGK1 (human)): 2.8%; kinase still bound, per cent of control (SRC (human)): 100%; kinase still bound, per cent of control (TBK1 (human)): 10%; kinase still bound, per cent of control (TNK2 (human)): 93%; kinase still bound, per cent of control (TRPM6 (human)): 100%; kinase still bound, per cent of control (WNK1 (human)): 75%; kinase still bound, per cent of control (WNK3 (human)): 90% |
| O=C1NC(=O)/C(=C/c2ccc3nccc(-c4ccncc4)c3c2)S1 | 12% | 55% | 2.4% | 7.9% | 20% | 88% | 100% | 6.2% | 77% | 88% | 96% | 82% | 90% | 58% | 76% | 100% | 100% | 39% | 100% | 94% | kinase still bound, per cent of control [3]: 76%; kinase still bound, per cent of control (MST1R (human)): 100%; kinase still bound, per cent of control (NEK4 (human)): 96%; kinase still bound, per cent of control (PIK3C2B (human)): 0.15%; kinase still bound, per cent of control (PIK3C2G (human)): 3.8%; kinase still bound, per cent of control (PIM2 (human)): 1%; kinase still bound, per cent of control (PIP5K1A (human)): 48%; kinase still bound, per cent of control (PRKCH (human)): 88%; kinase still bound, per cent of control (RET (human)): 98%; kinase still bound, per cent of control (RPS6KA1 KD2 (human)): 19%; kinase still bound, per cent of control (SGK1 (human)): 43%; kinase still bound, per cent of control (SRC (human)): 69%; kinase still bound, per cent of control (TBK1 (human)): 29%; kinase still bound, per cent of control (TNK2 (human)): 100%; kinase still bound, per cent of control (TRPM6 (human)): 97%; kinase still bound, per cent of control (WNK1 (human)): 57%; kinase still bound, per cent of control (WNK3 (human)): 86% |
